Results reported in patent US20250313619A1, “RISANKIZUMAB COMPOSITIONS” (ABBVIE INC., priority 0001, published 2025).

Columns and labels:
[1] = target: T1, PLA2G15 (Cricetulus griseus, UniProt G3HKV9); assay: PLA2G15 inhibition study: fosinopril spiked in DP2 material, PS20 HPLC-CAD subspecies method; type: biochemical; conditions: room temperature in dark for two weeks
T1 construct: PLA2 in the liquid compositions described herein is derived from a CHO cell line; endogenous in cells; host or cells: CHO cells expressing risankizumab (host-cell protein carried into drug substance/drug product)
T1 sequence (G3HKV9 34-412): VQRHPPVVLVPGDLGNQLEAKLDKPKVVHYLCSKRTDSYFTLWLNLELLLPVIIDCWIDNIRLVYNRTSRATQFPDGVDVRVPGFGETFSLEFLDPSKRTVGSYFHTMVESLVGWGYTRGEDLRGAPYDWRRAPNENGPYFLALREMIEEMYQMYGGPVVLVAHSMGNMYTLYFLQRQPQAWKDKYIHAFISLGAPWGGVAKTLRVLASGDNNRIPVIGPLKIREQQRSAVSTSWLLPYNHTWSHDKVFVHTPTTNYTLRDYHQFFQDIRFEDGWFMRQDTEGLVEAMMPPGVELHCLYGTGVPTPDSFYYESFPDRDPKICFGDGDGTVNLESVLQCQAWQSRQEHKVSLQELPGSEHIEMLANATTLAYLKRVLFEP
Experimental: Fosinopril is an angiotensin converting enzyme (ACE) inhibitor, which is been used to treat hypertension and some types of chronic heart failure (Murdoch et al. (1992) Drugs 43:123-140). […] All samples (including non-spiked samples) were incubated at room temperature in the dark for two weeks. PS20 degradation levels in those samples were tested with a PS20 subspecies method. PS20 degradation levels in those samples were compared with negative controls (non-spiked samples kept at room temperature in dark for two weeks) and positive controls (non-spiked samples kept at −80° C. before testing). […] The chemical structure of fosinopril is shown below.
Fosinopril sodium was dissolved in Mill-Q water at a concentration of 0.5 mg/mL. The solution was aseptically filtered with a 0.22 syringe filter before use. During the filtration, the syringe filter was flushed with Mill-Q water and then with the 0.5 mg/mL fosinopril water solution. Lower concentrations of fosinopril water solutions were aseptically diluted with Mill-Q water. More detailed sample preparation can be found in Table 22. All vials were glass vials, and solutions were well mixed before incubation. Samples were incubated at room temperature in dark for two weeks before testing.
A PS20 HPLC-CAD subspecies method was used to test the PS20 levels qualitatively as well as profiles in all samples. Solutions were transferred to HPLC vials and diluted with Milli-Q water (1:1 dilution). All HPLC vials were mixed well before placed in an HPLC autosampler for testing. Sample descriptions and labels can be found in Table 23.

[2] = target: T2, PLA2G15 (Phospholipase A2 Group XV) (Homo sapiens, UniProt Q8NCC3); conditions: Hinkovska-Galcheva et al. (2021); read-out: IC50, inhibition of PLA2G15 activity; cited from earlier work
T2 sequence (Q8NCC3 34-412): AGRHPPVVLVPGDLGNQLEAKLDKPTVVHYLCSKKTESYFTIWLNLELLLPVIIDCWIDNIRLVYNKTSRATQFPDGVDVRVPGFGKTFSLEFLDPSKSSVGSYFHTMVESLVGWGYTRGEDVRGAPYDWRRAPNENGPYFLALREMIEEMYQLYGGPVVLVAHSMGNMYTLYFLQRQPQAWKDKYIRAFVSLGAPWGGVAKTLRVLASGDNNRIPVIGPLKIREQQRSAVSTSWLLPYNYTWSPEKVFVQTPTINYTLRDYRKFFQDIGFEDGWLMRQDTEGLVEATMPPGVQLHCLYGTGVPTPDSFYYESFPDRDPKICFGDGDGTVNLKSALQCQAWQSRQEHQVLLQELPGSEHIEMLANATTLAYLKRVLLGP

## CCC(=O)O[C@@H](O[P@](=O)(CCCCc1ccccc1)CC(=O)N1C[C@H](C2CCCCC2)C[C@H]1C(=O)O)C(C)C [fosinopril]
[1]; 0.9 μg/mL spiking level, vs non-spiked control
  protection (inhibition) of PS20 degradation in the DP2 material: reduction of PS20 degradation has been observed
[1]; 0.9 μg/mL spiking level, vs non-spiked control, listed as Fosinopril
  protection (inhibition) of PS20 degradation in the DP2 material: showed protection (inhibition)
[1]; 0.9-83.3 ug/mL spiked
  protection (inhibition) of PS20 degradation in the DP2 material: Dose (concentration) dependent protection (inhibition)
[1]; 0.9-83.3 ug/mL spiked, listed as Fosinopril
  protection (inhibition) of PS20 degradation in the DP2 material: dose dependent protection (inhibition)
[2]
  IC50: ~180 nM
